From PubChem BioAssay AID1919015 (Molecular Pharmacology Branch, DTP, NCI, 2023)
Where “and” joins values, the source holds several entries; their conditions need not be identical. Equal entries are not always repeated.

Tested on: OVCAR-5 complex spheroids with HUVEC/MSC, viability, % test/control
Experiment: Anticancer human tumor OVCAR-5 cell line growth inhibition [AhR];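 also: spheroids exposed to compounds for 7 days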;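 as to viability, T/C: 100% = DMSO vehicle control wells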
Conditions: for viability, T/C: stronger effect = lower value
Description: Multicellular complex tumor spheroid response to aryl hydrocarbon receptor antagonists in combination with a variety of drugs and investigational agents in selected tumor cell lines
The current study was undertaken to assess response to aryl hydrocarbon receptor antagonists in combination with standard-of-care drugs and investigational agents in solid tumor complex spheroid models. Complex spheroids include a stromal component modeled by human endothelial cells (HUVEC) and fibroblasts modeled by human mesenchymal stem cells (MSCs). The concentration ranges selected for each drug and investigational agent were based upon clinically achievable concentrations if the clinical Cmax of the agent was known.
Compounds. The drugs and investigational agents: BAY 2416964 (NSC825713), GNF351 (NSC835774), CH-223191 (NSC835775), CPI-455 (NSC825282), aza-TdCyd (NSC777586), decitabine (NSC127716), belinostat (NSC758774), entinostat (NSC756642), pevonedistat (NSC761192), tazemetostat (NSC777109), talazoparib (NSC765396), olaparib (NSC753686), selinexor (NSC780203), nedisertib (M3814, NSC802822), bortezomib (NSC756655), venetoclax (NSC766270), doxorubicin (NSC123127), elimusertib (BAY189344, NSC800525), ceralasertib (AZD6738, NSC777638), TAK-243 (NSC785004), alisertib (NSC759677), etoposide (NSC141540), topotecan (NSC609699), eribulin (NSC707389), gemcitabine (NSC613327), carboplatin (NSC241240), cisplatin (NSC119875), and SN-38 (NSC673596) were obtained from the National Cancer Institute (NCI) Developmental Therapeutics Program Chemical Repository (32). The FDA-approved anticancer drug set is available from the Developmental Therapeutics Program at https://dtp.cancer.gov/organization/dscb/obtaining/available plates.htm. […] The stock solutions were prepared in dimethyl sulfoxide (DMSO, Sigma-Aldrich, St. Louis, MO, cat. D2650), except for the platinum compounds which were prepared in saline (Quality Biological, Gaithersburg, MD, cat. 114-055-101), at 800-fold the tested concentration and stored at -70 degrees C prior to their use. All drugs and investigational agents were tested over a range starting from a high concentration at or near the clinical Cmax and decreasing in half-log increments. If the clinical Cmax for an agent had not been determined, the highest concentration tested was 10 microM (Table 1).
Cell Culture. All cells were maintained in an incubator at 37 degrees C and 5% CO2 with 95% humidity. The PDC lines were cultured according to standard operating procedures established by the NCI PDMR (https://pdmr.cancer.gov). Briefly, all PDCs were thawed and cultured in Matrigel-coated flasks prepared with a working solution of 1X Ham's F-12 nutrient mix, without supplementation (Invitrogen, Waltham, MA, cat. 11765054), 100 U/mL penicillin-streptomycin (Invitrogen, cat. 15140122), and 2.5% Matrigel (Corning Inc., Corning, NY, cat. 354248) for the first three passages. All PDCs were cultured in complete DMEM/F-12 media containing advanced DMEM/F-12 (Invitrogen, cat. 12634028), 4.9% defined fetal bovine serum, heat inactivated (HyClone Laboratories Inc., Logan, UT, cat. SH30070.03HI), 389 ng/mL hydrocortisone (Sigma-Aldrich, cat. H4001), 9.7 ng/mL human EGF recombinant protein (Invitrogen, cat. PHG0313), 23.4 microg/mL adenine (Sigma-Aldrich, cat. A2786), 97.3 U/mL penicillin-streptomycin (Invitrogen, cat. 15140122), 1.9 mM L-glutamine (Invitrogen, cat. 25030081), and 9.7 microM Y-27632 dihydrochloride (Tocris Bioscience, Bristol, United Kingdom, cat. 1254). The PDCs were cultured in complete DMEM/F12 media without 10 microM Y-27632 dihydrochloride for at least two passages prior to the screen. The established cell lines NCI-H1341 and […] were cultured in DMEM/F-12, HEPES (Invitrogen, cat. 11330032), 5% defined fetal bovine serum (HyClone Laboratories Inc., cat. SH30070.03), ITS premix universal culture supplement [insulin (5 microg/mL), transferrin (5 microg/mL), and selenious acid (5 ng/mL)] […]

COc1ccc([C@@H](O)c2cc(-c3ncnc4cc(N5CCOCC5)ccc34)c(F)cc2Cl)nn1
viability, T/C (compound 0.0316 µM): 104% and 96.5% and 91.2% | viability, T/C (compound 0.1 µM): 101% and 96.4% and 97.7% | viability, T/C (compound 0.316 µM): 95.6% and 86.5% and 85% | viability, T/C (compound 1 µM): 76.2% and 70.7% and 63.6% | viability, T/C (compound 3.16 µM): 48.4% and 41.8% and 38.3% | viability, T/C (compound 10 µM): 23% and 23.6% and 18.7% | IC50 (curve of compound): 2930 nM and 2290 nM and 1850 nM

COc1cccc2c1C(=O)c1c(O)c3c(c(O)c1C2=O)CC(O)(C(=O)CO)CC3OC1CC(N)C(O)C(C)O1 (configuration not stated)
viability, T/C (compound 0.0316 µM): 66.2% and 56.6% and 74% | viability, T/C (compound 0.1 µM): 55.2% and 47.4% and 58.4% | viability, T/C (compound 0.316 µM): 49.6% and 41.8% and 46.6% | viability, T/C (compound 1 µM): 28.7% and 24.1% and 25.6% | viability, T/C (compound 3.16 µM): 1.66% and 1.72% and 3.06% | viability, T/C (compound 10 µM): 1.46% and 1.1% and 1.11% | IC50 (curve of compound): 316 nM and 114 nM and 223 nM

Cc1cncc(-c2nc(NCCc3c[nH]c4ccccc34)c3ncn(C(C)C)c3n2)c1
viability, T/C (compound 0.1 µM): 98.8% [middle of 20 runs] | viability, T/C (compound 0.316 µM): 97.6% [middle of 19 runs] | viability, T/C (compound 1 µM): 92.7% [middle of 20 runs] | viability, T/C (compound 3.16 µM): 78.4% [middle of 20 runs] | IC50 (compound alone, run of 08/16/2022): 5.52 µM [middle of 22 runs]

Cn1ncnc1C1c2n[nH]c(=O)c3cc(F)cc(c23)NC1c1ccc(F)cc1 (configuration not stated)
viability, T/C (compound 0.000316 µM): 104% and 100% and 102% | viability, T/C (compound 0.001 µM): 101% and 99% and 103% | viability, T/C (compound 0.00316 µM): 105% and 94.4% and 102% | viability, T/C (compound 0.01 µM): 98.9% and 92.5% and 97.6% | viability, T/C (compound 0.0316 µM): 101% and 92.3% and 97.3% | viability, T/C (compound 0.1 µM): 95.8% and 88% and 91.3% | IC50 (curve of compound): > 100 nM

NS(=O)(=O)OCC1CC(n2ccc3c(NC4CCc5ccccc54)ncnc32)CC1O (configuration not stated)
viability, T/C (compound 0.0316 µM): 99.8% and 98.4% and 111% | viability, T/C (compound 0.1 µM): 74.2% and 68.1% and 75% | viability, T/C (compound 0.316 µM): 41.8% and 38.4% and 42.8% | viability, T/C (compound 1 µM): 21.2% and 16.9% and 19.1% | viability, T/C (compound 3.16 µM): 14.8% and 11.5% and 13% | viability, T/C (compound 10 µM): 11.8% and 9.65% and 11.2% | IC50 (curve of compound): 235 nM and 197 nM

Nc1ccccc1NC(=O)c1ccc(CNC(=O)OCc2cccnc2)cc1
viability, T/C (compound 0.0316 µM): 92.2% and 93.7% and 84.8% | viability, T/C (compound 0.1 µM): 90.3% and 88.7% and 81.2% | viability, T/C (compound 0.316 µM): 75.1% and 77.2% and 67.5% | viability, T/C (compound 1 µM): 53.3% and 52.3% and 33.1% | viability, T/C (compound 3.16 µM): 23.5% and 21.1% and 19.9% | viability, T/C (compound 10 µM): 9.94% and 8.4% and 7.9% | IC50 (curve of compound): 1080 nM and 1050 nM and 580 nM

Nc1ccn(C2OC(CO)C(O)C2(F)F)c(=O)n1 (configuration not stated)
viability, T/C (compound 0.0316 µM): 32.6% and 27.9% and 33.8% | viability, T/C (compound 0.1 µM): 30.9% and 25.9% and 30.5% | viability, T/C (compound 0.316 µM): 31.4% and 27.5% and 30.8% | viability, T/C (compound 1 µM): 31.7% and 27.9% and 31.9% | viability, T/C (compound 3.16 µM): 32.3% and 29.7% and 33.2% | viability, T/C (compound 10 µM): 31.7% and 27.8% and 29.7% | IC50 (curve of compound): < 31.6 nM

Nc1ncn(C2CC(O)C(CO)O2)c(=O)n1 (configuration not stated)
viability, T/C (compound 0.00316 µM): 101% and 99.1% and 104% | viability, T/C (compound 0.01 µM): 97.8% and 103% and 98.1% | viability, T/C (compound 0.0316 µM): 94% and 94.8% and 88.5% | viability, T/C (compound 0.1 µM): 82.6% and 82.3% and 82% | viability, T/C (compound 0.316 µM): 76% and 70.8% and 68.8% | viability, T/C (compound 1 µM): 65% and 59.9% and 63.7% | IC50 (curve of compound): > 1000 nM

Nc1ncn(C2CC(O)C(CO)S2)c(=O)n1 (configuration not stated)
viability, T/C (compound 0.000949 µM): 103% and 101% and 99.6% | viability, T/C (compound 0.003 µM): 96.8% and 106% and 99.3% | viability, T/C (compound 0.00949 µM): 102% and 103% and 97.4% | viability, T/C (compound 0.03 µM): 99.8% and 99.5% and 105% | viability, T/C (compound 0.0949 µM): 91.7% and 90.7% and 99% | viability, T/C (compound 0.3 µM): 83.8% and 77.6% and 83.7% | IC50 (curve of compound): > 300 nM

O=C(C=Cc1cccc(S(=O)(=O)Nc2ccccc2)c1)NO
viability, T/C (compound 0.0316 µM): 94.1% and 97.8% and 90.4% | viability, T/C (compound 0.1 µM): 93.2% and 88% and 88.8% | viability, T/C (compound 0.316 µM): 76.5% and 73.4% and 70.6% | viability, T/C (compound 1 µM): 59.4% and 55.6% and 52.8% | viability, T/C (compound 3.16 µM): 30.6% and 24.4% and 27.7% | viability, T/C (compound 10 µM): 7.78% and 5.16% and 5.95% | IC50 (curve of compound): 1410 nM and 1120 nM and 1110 nM

O=C(C=Cn1cnc(-c2cc(C(F)(F)F)cc(C(F)(F)F)c2)n1)NNc1cnccn1
viability, T/C (compound 0.00949 µM): 109% and 108% and 104% | viability, T/C (compound 0.03 µM): 108% and 109% and 105% | viability, T/C (compound 0.0949 µM): 101% and 99.5% and 96.1% | viability, T/C (compound 0.3 µM): 85.9% and 76.1% and 78.1% | viability, T/C (compound 0.949 µM): 68.2% and 58.4% and 60.8% | viability, T/C (compound 3 µM): 47% and 42% and 40.6% | IC50 (curve of compound): 2560 nM and 1610 nM and 1710 nM

O=C(c1cc(Cc2n[nH]c(=O)c3ccccc23)ccc1F)N1CCN(C(=O)C2CC2)CC1
viability, T/C (compound 0.0316 µM): 98.3% and 103% and 100% | viability, T/C (compound 0.1 µM): 97.6% and 99% and 96.8% | viability, T/C (compound 0.316 µM): 92.4% and 97.2% and 96.1% | viability, T/C (compound 1 µM): 93% and 93.2% and 98.6% | viability, T/C (compound 3.16 µM): 90.9% and 91% and 92.9% | viability, T/C (compound 10 µM): 83.3% and 83.5% and 84.2% | IC50 (curve of compound): > 10000 nM
